Reference: US4180655A, “Nitrosourea derivatives” (Suami; Tetsuo, priority 1974, dated 1979)
Like-named read-outs stand apart in the source and are kept apart here.

Assays:
[1] = LD50 value / toxicity in the intraperitoneal administration to BDF1 mice; settings: mouse, in vivo, ip
Description: The new nitrosourea derivatives according to this invention are further characterized by their low toxicity, thus satisfying their practical application for treating leukemia and tumor diseases.

[2] = system: Leukemia L1210 cells; assay: Chemotherapeutic effect of nitrosourea derivatives on leukemia L1210 in mice; type: in vivo, mice (BDF1/BDF); set-up: Volume of ascites, Treated: unit not given here
Description: Chemotherapeutic effect of a variety of the nitrosourea derivatives of the formula I according to this invention on leukemia L1210 in mice were investigated by the following method and materials.
A--BDF1 mice (about 6 week-aged; body weight: 22±1 g); each experimental group was composed of 2 male mice.
B--BDF1 mice (about 7 week-aged; body weight: 21±2 g); each experimental group was composed of 3 male mice.
C--BDF mice (about 7 week-aged; body weight: 22±2 g); each experimental group was composed of 2 male mice.
D--BDF mice (about 6 week-aged; body weight: 21±2 g); each experimental group was composed of 3 male mice.
E--BDF1 mice (about six week-aged; body weight 20±1 g); each experimental group was composed of 3 female mice.
F--BDF1 mice (about six week-aged; body weight 21±1 g); each experimental group was composed of 3 male mice.
A--Leukemia L1210 cells (2.1×10^6 cells/ 0.05 ml/mouse) were intraperitoneally inoculated.
B--Leukemia L1210 cells (1.9×10^6 cells/0.05 ml/mouse) were intraperitoneally inoculated.
C--Leukemia L1210 cells (1.2×10^6 cells/0.05 ml/mouse) were intraperitoneally inoculated.
A--The test compound was dissolved in a physiological saline solution and administered intraperitoneally at a volume of 0.1 ml/mouse. The administration was made at once/day, from 24 hours after i.p. inoculation of L1210 cells, for 3 days. The effect of test compound was assessed by mean survival days of mice, percent increase in life-span, anatomical findings involving the volume of ascites.
B--The same as that used in A except that the drug administration was continued for 5 days.
C--The same as that used in A except that the test compound was suspended in 0.5% CMC solution and that the drug administration was continued for 5 days.
D--The same as that used in A except that the test compound was dissolved in distilled water for injection purposes.
The percentage increase in life-span (ILS) was calculated as follows:
Percentage increase in life-span (ILS)=T-C/C×100
T: The mean survival days of the treated animals.
C: The mean survival days of the untreated control.

[3] = 0.2 mg/kg i.p. once/day for 3 days (procedure A, saline)
[4] = 0.5 mg/kg i.p. once/day for 3 days (procedure A, saline)
[5] = 1 mg/kg i.p. once/day for 3 days (procedure A, saline)
[6] = 2 mg/kg i.p. once/day for 3 days (procedure A, saline)
[7] = 4 mg/kg i.p. once/day for 3 days (procedure A, saline)
[8] = 5 mg/kg i.p. once/day for 3 days (procedure A, saline)
[9] = 6.25 mg/kg i.p. once/day for 3 days (procedure A, saline)
[10] = 8 mg/kg i.p. once/day for 3 days (procedure A, saline)
[11] = 10 mg/kg i.p. once/day for 3 days (procedure A, saline)
[12] = 50 mg/kg i.p. once/day for 3 days (procedure A, saline)
[13] = 100 mg/kg i.p. once/day for 3 days (procedure A, saline)
[14] = 150 mg/kg i.p. once/day for 3 days (procedure A, saline)
[15] = 200 mg/kg i.p. once/day for 3 days (procedure A, saline)
[16] = 100 mg/kg i.p. once/day for 3 days (procedure D, distilled water)
[17] = 200 mg/kg i.p. once/day for 3 days (procedure D, distilled water)
[18] = 400 mg/kg i.p. once/day for 3 days (procedure D, distilled water)

For `O=NN(CCCl)C(=O)N[C@@H]1O[C@H](CO)[C@@H](O)[C@H](O)[C@H]1O` [Compound 1, 1-(2-chloroethyl)-3-(β-D-glucopyranosyl)-1-nitrosourea], the LD50 [1] was ~25 mg/kg, the “Survival days, Treated (mean)” value [2, 3] was 12.0 days and the “Volume of ascites, Treated” value [2, 3] was 4.2. For the same compound, the “Survival days, Treated (mean)” value [2, 4] was 12.5 days, the “Volume of ascites, Treated” value [2, 4] was 4.2 and the “Survival days, Treated (mean)” value [2, 5] was 12.9 days. For the same compound, the “Volume of ascites, Treated” value [2, 5] was 5.0, the “Survival days, Treated (mean)” value [2, 6] was 15.3 days and the “Volume of ascites, Treated” value [2, 6] was 2.5. The “Survival days, Treated (mean)” value [2, 7] was 40.3 days, the “Volume of ascites, Treated” value [2, 7] was 0 and the “Survival days, Treated (mean)” value [2, 8] was 15.3 days. For the same compound, the “Volume of ascites, Treated” value [2, 8] was 1.5, the “Survival days, Treated (mean)” value [2, 9] was > 40.1 days and the “Volume of ascites, Treated” value [2, 9] was 0. The “Survival days, Treated (mean)” value [2, 10] was 95.9 days, the “Volume of ascites, Treated” value [2, 10] was 0 and the “Survival days, Treated (mean)” value [2, 11] was 95.9 days. The “Volume of ascites, Treated” value [2, 11] was 0, the ILS at 0.2 mg/kg ([2]; Mus musculus, L1210, ip, 72 h, 0.2 mg/kg i.p. once/day for 3 days (procedure A, saline), read-out: Percentage increase in life-span (ILS)) was 29% and the ILS at 0.5 mg/kg ([2]; Mus musculus, L1210, ip, 72 h, 0.5 mg/kg i.p. once/day for 3 days (procedure A, saline), read-out: Percentage increase in life-span (ILS)) was 34.4%. For the same compound, the ILS at 1 mg/kg ([2]; Mus musculus, L1210, ip, 72 h, 1 mg/kg i.p. once/day for 3 days (procedure A, saline), read-out: Percentage increase in life-span (ILS)) was 38.7%, the ILS at 2 mg/kg ([2]; Mus musculus, L1210, ip, 72 h, 2 mg/kg i.p. once/day for 3 days (procedure A, saline), read-out: Percentage increase in life-span (ILS)) was 64.5% and the ILS at 4 mg/kg ([2]; Mus musculus, L1210, ip, 72 h, 4 mg/kg i.p. once/day for 3 days (procedure A, saline), read-out: Percentage increase in life-span (ILS)) was 333%. The ILS at 5 mg/kg ([2]; Mus musculus, L1210, ip, 72 h, 5 mg/kg i.p. once/day for 3 days (procedure A, saline), read-out: Percentage increase in life-span (ILS)) was 64.5%, the ILS at 6.25 mg/kg ([2]; Mus musculus, L1210, ip, 72 h, 6.25 mg/kg i.p. once/day for 3 days (procedure A, saline), read-out: Percentage increase in life-span (ILS)) was > 331% and the ILS at 8 mg/kg ([2]; Mus musculus, L1210, ip, 72 h, 8 mg/kg i.p. once/day for 3 days (procedure A, saline), read-out: Percentage increase in life-span (ILS)) was 931%. For the same compound, the ILS at 10 mg/kg ([2]; Mus musculus, L1210, ip, 72 h, 10 mg/kg i.p. once/day for 3 days (procedure A, saline), read-out: Percentage increase in life-span (ILS)) was 931%.

In the case of `CN(N=O)C(=O)N[C@@H]1O[C@H](CO)[C@@H](O)[C@H](O)[C@H]1O` [Compound 11, 1-(β-D-glucopyranosyl)-3-methyl-3-nitrosourea, reference compound], the “Survival days, Treated (mean)” value [2, 12] is reported as 12.0 days, the “Volume of ascites, Treated” value [2, 12] is reported as 2.8 and the “Survival days, Treated (mean)” value [2, 13] is reported as 13.9 days. For the same compound, the “Volume of ascites, Treated” value [2, 13] was 4.6, the “Survival days, Treated (mean)” value [2, 14] was 14.1 days and the “Volume of ascites, Treated” value [2, 14] was 1.9. The “Survival days, Treated (mean)” value [2, 15] was 16.6 days, the “Volume of ascites, Treated” value [2, 15] was 1.4 and the ILS at 50 mg/kg ([2]; Mus musculus, L1210, ip, 72 h, 50 mg/kg i.p. once/day for 3 days (procedure A, saline), read-out: Percentage increase in life-span (ILS)) was 55.6%. For the same compound, the ILS at 100 mg/kg ([2]; Mus musculus, L1210, ip, 72 h, 100 mg/kg i.p. once/day for 3 days (procedure A, saline), read-out: Percentage increase in life-span (ILS)) was 80.7%, the ILS at 150 mg/kg ([2]; Mus musculus, L1210, ip, 72 h, 150 mg/kg i.p. once/day for 3 days (procedure A, saline), read-out: Percentage increase in life-span (ILS)) was 83.4% and the ILS at 200 mg/kg ([2]; Mus musculus, L1210, ip, 72 h, 200 mg/kg i.p. once/day for 3 days (procedure A, saline), read-out: Percentage increase in life-span (ILS)) was 108%.

For `CN(N=O)C(=O)N[C@@H](CO)[C@@H](O)[C@H](O)[C@H](O)CO` [Compound 12, N-carbamoyl-N'-methyl-N'-nitroso-D-glucosaminol, reference compound], the “Survival days, Treated (mean)” value [2, 16] was 13.9 days, the “Volume of ascites, Treated” value [2, 16] was 3.0 and the “Survival days, Treated (mean)” value [2, 17] was 15.0 days. The “Volume of ascites, Treated” value [2, 17] was 4.0, the “Survival days, Treated (mean)” value [2, 18] was 13.4 days and the “Volume of ascites, Treated” value [2, 18] was 3.4. The ILS at 100 mg/kg ([2]; Mus musculus, L1210, ip, 72 h, 100 mg/kg i.p. once/day for 3 days (procedure D, distilled water), read-out: Percentage increase in life-span (ILS)) was 30%, the ILS at 200 mg/kg ([2]; Mus musculus, L1210, ip, 72 h, 200 mg/kg i.p. once/day for 3 days (procedure D, distilled water), read-out: Percentage increase in life-span (ILS)) was 40% and the ILS at 400 mg/kg ([2]; Mus musculus, L1210, ip, 72 h, 400 mg/kg i.p. once/day for 3 days (procedure D, distilled water), read-out: Percentage increase in life-span (ILS)) was 25%.
